From patent US11607422B2, “Uttroside B and derivatives thereof as therapeutics for hepatocellular carcinoma” (Rajiv Gandhi Centre for Biotechnology, an Autonomous …, priority 2016, dated 2023)
Where two headings read alike, the source gives them in different places.

Experiments:
[1] = test system: PARP and caspase 9 in HepG2 cells; experiment: Western blot of PARP and caspase 9 cleavage with inhibition of autophagy; type: cell-based, human; settings: for effect of autophagy inhibitor on Uttroside B-induced caspase 9 activation: HepG2, Western blot; for effect of autophagy inhibitor on Uttroside B-induced cleavage of PARP: HepG2, pretreatment with inhibitor
Protocol: Western blot analysis. Approximately 0.5×10^6 cells were grown on 60 mm culture plates and exposed to drugs as indicated for the desired time. The cells were then scraped out, washed in ice cold 1× PBS and pelleted down at 13000 rpm for 2 min. The pelleted cells were suspended in 150 μL of ice-cold whole cell lysis buffer[(20 mMTris of pH 7.4, 250 mM NaCl, 2 mM EDTA, 0.1% Triton, 1 mM DTT (1,4-dithiothreitol), 0.5 mM PMSF, 4 mM sodium orthovanadate, aprotinin (5 mg m/L) and leupeptin (5 mg m/L)] and kept in ice for 30 min, with intermittent vortexing every 5 min. After incubation, the lysate was centrifuged at 13000 rpm for 10 min at 4° C. and the supernatant was collected. The total protein content in the lysate was estimated by Bradford's method, and was then denatured by boiling with 5× loading dye before separating the proteins by SDSpolyacrylamidegel electrophoresis (SDS-PAGE). Following electrophoresis, the polyacrylamide gel and a PVDF membrane were equilibrated with Towbins buffer (1 L, 25 mM Tris, 192 mM glycine, 20% (v/v) methanol (pH 8.3) for 15-30 min and the separated proteins were electro-transferred to PVDF membrane (Hybond-P, GE Healthcare Life science) using Bio-Rad Mini PROTEAN III wet blot apparatus at 100 V for 2 h at cold conditions. After the transfer, the membrane was rinsed with TBS-T (20 mM Tris pH 7.5, 150 mM NaCl, 0.1% Tween 20) buffer and stained with Ponceau-S to ensure uniform transfer. After washing off the Ponceau stain with TBST, the membrane was exposed to 5% fat free milk in TBST buffer for 1 h at room temperature to block the nonspecific binding of antibodies, followed by overnight incubation with the primary antibody [1:1000 dilution] in 3% BSA in TBST buffer at 4° C. Excess antibody was washed off with TBST buffer and incubated with corresponding secondary antibody [1:5000 dilution] coupled with horse radish peroxidase (HRP) in 5% fat free milk in TBST buffer. The bands were visualized using enhanced chemiluminescence kit (Millipore, St Charles, Mo., United States) following manufacturer's protocol.
HepG2 was transiently transfected with Beclin siRNA and control siRNA using Lipofectamine LTX Plus reagent kit according to manufacturer's protocol (Invitrogen, USA). 0.35×10^6cells per well were seeded in a six well tissue culture plate containing 2 ml antibiotic-free normal growth medium supplemented with FBS and the cells were incubated to attain 60% confluency. Beclin siRNA duplex solution (Solution A) was added directly to the dilute transfection reagent (LP LTX plus reagent) (Solution B). The solution was mixed gently by pipetting up and down and incubated for 45 minutes at room temperature. The cells were washed gently with 2 ml of transfection medium (optiMEM medium). […]

HepG2 cells [2] = experiment: MTT assay of Uttroside B with autophagy inhibitor; type: cell-based, human; settings: 3 MA 1 mM, 72 h
[3] = literature refs 3, 25; cited from earlier work
HepG2 cells [4] = experiment: Cell cycle analysis by flow cytometry (propidium iodide); type: cell-based, human; settings: HepG2, 25 μM, 24 h
Protocol: FIGS. 3A-3F show Uttroside B induces caspase-dependent apoptosis leading to PARP cleavage in HepG2 cells while being independent of cell cycle. FIGS. 3A-3E are images of Western blots showing caspase activation in HepG2 cells. Whole-cell extracts were prepared after treating HepG2 cells with indicated concentrations of Uttroside B for 48 h, the whole cell lysate was resolved on a 15% gel and subjected to western blotting using antibodies against the caspases 8, 9 & 7 detected by ECL. HepG2 cells were treated with Uttroside B for 48 h at different concentrations and the whole cell lysate was resolved on a 10% gel, immunoblotted against anti-PARP and detected by ECL. […] HepG2 cells were treated with Uttroside B for 48 h, stained with propidium iodide and the cell cycle analysis was done using fluorescence activated cell sorter. Curcumin 25 μM (24 h) is used as positive control.
Flow cytometry: Cell cycle analysis helps in distinguishing the distribution of a population of cells to the different stages of the cycle. Cell cycle analysis using flow cytometry was performed to investigate the cell cycle arrest induced by Uttroside B. Cell cycle analysis is performed by quantitative measurement of nuclear DNA content in a cell by staining DNA with propidium iodide. […]

HepG2 cells [5] = experiment: MTT cell viability assay in HepG2 cells; type: cell-based, human; settings: Homo sapiens, HepG2, 72 h, read-out: IC50, cytotoxicity towards HepG2 cells
Protocol: Stocks of crude extracts and isolated compound of S. nigrum was prepared in DMSO for the in vitro studies and stored at −20° C. The DMSO concentration in all studies, including controls, was ≤0.2%. Cell viability assay was performed after 72 h of drug treatment while whole cell lysate preparation and cell cycle analysis were done after 24 h and 48 h of drug treatment. For studying NF-κB and AP-1, Uttroside B was incubated for 2 h before extraction.
MTT [3-(4,5-dimethylthiazole-2-yl)-2,5-diphenyltetrazolium bromide] assay is a standard colorimetric assay, suitable for analyzing proliferation, viability, and cytotoxicity. Briefly, the HepG2 cells were seeded in 96-well plates (2000 cells/well). […] Fresh media containing 25 μL of MTT solution (5 mg/mL in PBS) and 75 μL of complete medium was added to the wells and incubated for 2 h. At the end of incubation, lysis buffer (20% sodium dodecyl sulphate in 50% dimethyl formamide)was added to the wells (0.1 mL/well) and incubated for another 1 h at 37° C. At the end of incubation, the optical density was measured at 570 nm using ELISA plate reader (Bio-Rad). The relative cell viability in percentage was calculated as (A570 of treated samples/A570 of untreated samples)×100. The IC50 values were extrapolated from polynomial regression analysis of study data.^17

hepatocellular carcinoma = settings: cited from earlier work
HepG2 cells [6] = settings: literature ref 14; read-out: IC50 against HepG2 cells; cited from earlier work
U937 leukemia cell line = settings: literature ref 14; read-out: IC50, cytotoxicity against U937 leukemia cell line; cited from earlier work
[7] = literature ref 9; cell line not stated; cited from earlier work
LC3 in HepG2 cells = experiment: Autophagy flux (LC3I to LC3II conversion) with Bafilomycin; type: cell-based, human; settings: HepG2, LC3 II accumulation
Protocol: Concentration dependent effect of BafilomycinAl on the endogenous conversion of LC3I to LC3II in HepG2 cells. Cells were treated with Bafilomycin Al at different concentration and the whole cell lysate was resolved on a 15% gel and immunoblotted against LC3 antibody. Uttroside B is an autophagy inducer in HepG2 cells as analysed by autophagy flux using Bafilomycin Al. […] The increase in LC3 II could not be considered as a fool proof of autophagic induction because a blockage in any step leading from autophagosome maturation to its fusion with lysosomes could cause its accumulation. So, the effect of Uttroside B in HepG2 cells were analyzed for autophagy flux, a more accurate read out of autophagy on co-treatment with Bafilomycin, an autophagy-lysosome inhibitor. Bafilomycin A, blocks autophagy by blocking the fusion of autophagosome with lysosome which cause the accumulation of autophagosome or LC3. First, the concentration of Bafilomycin Al required for saturating the blockage of autophagy-lysosome fusion was standardized. The efficacy of Bafilomycin Al, in terms of blocking autophagosome degradation in HepG2, was found peaked at 10 nM, beyond which no further accumulation of LC3 II was noted, which matched with the earlier reports.^32,37,38 […]

human cancer cells = settings: literature ref 22; cited from earlier work

Cn1cnc(N)c2ncnc1-2 [3-MA]
effect of autophagy inhibitor on Uttroside B-induced caspase 9 activation [1]: enhanced
effect of autophagy inhibitor on Uttroside B-induced cleavage of PARP [1]: enhanced
effect of autophagy inhibitor on Uttroside B-induced cytotoxicity (HepG2 cells [2]): significantly enhanced

C[C@@H]1CC[C@@]2(OC1)O[C@H]1C[C@H]3[C@@H]4CC[C@@H]5C[C@@H](O)CC[C@]5(C)[C@H]4CC[C@]3(C)[C@H]1[C@@H]2C [smilagenin]
effect on cell cycle [3]: block cell cycle in G0/G1 phase

C[C@@H]1CC[C@@]2(OC1)O[C@H]1C[C@H]3[C@@H]4CC=C5C[C@@H](O)CC[C@]5(C)[C@H]4CC[C@]3(C)[C@H]1[C@@H]2C [diosgenin]
effect on cell cycle [3]: block cell cycle in G0/G1 phase

COc1cc(/C=C/C(=O)CC(=O)/C=C/c2ccc(O)c(OC)c2)ccc1O [curcumin, reference compound]
effect on cell cycle (positive control) (HepG2 cells [4]): readily induced cell cycle arrest at G2/M

CNC(=O)c1cc(Oc2ccc(NC(=O)Nc3ccc(Cl)c(C(F)(F)F)c3)cc2)ccn1 [sorafenib]
IC50 (HepG2 cells [5]): 5.8 µM
prolongation of survival rate (hepatocellular carcinoma; HCC patients): up to 20%
side effects (hepatocellular carcinoma; reported): severe side effects

C[C@H](CC[C@@]1(O)O[C@H]2C[C@H]3[C@@H]4CC[C@H]5C[C@@H](O[C@@H]6O[C@H](CO)[C@H](O[C@@H]7O[C@H](CO)[C@@H](O)[C@H](O[C@@H]8OC[C@@H](O)[C@H](O)[C@H]8O)[C@H]7O[C@@H]7O[C@H](CO)[C@H](O)[C@H](O)[C@H]7O)[C@H](O)[C@H]6O)CC[C@]5(C)[C@H]4CC[C@]3(C)[C@H]2[C@@H]1C)CO[C@@H]1O[C@H](CO)[C@@H](O)[C@H](O)[C@H]1O [Parvispinoside B]
IC50 (HepG2 cells [6]): > 100 µM
IC50 (U937 leukemia cell line): 0.5 µM

C[C@@H]1CC[C@@]2(OC1)O[C@H]1C[C@H]3[C@@H]4CC[C@H]5C[C@@H](O[C@@H]6O[C@H](CO)[C@H](O[C@@H]7O[C@H](CO)[C@@H](O)[C@H](O[C@@H]8OC[C@@H](O)[C@H](O)[C@H]8O)[C@H]7O[C@@H]7O[C@H](CO)[C@@H](O)[C@H](O)[C@H]7O)[C@H](O)[C@H]6O)CC[C@]5(C)[C@H]4CC[C@]3(C)[C@H]1[C@@H]2C [Degalactotigonin]
cytotoxicity [7]: 0.25 µM

CO/C1=C\C(C)=C\[C@@H](C)[C@@H](O)[C@@H](C)C/C(C)=C/C=C/[C@H](OC)[C@@H]([C@@H](C)[C@@H](O)[C@H](C)[C@@]2(O)C[C@@H](O)[C@H](C)[C@@H](C(C)C)O2)OC1=O [Bafilomycin Al]
effect of autophagy inhibitor on Uttroside B-induced caspase 9 activation [1]: enhanced
effect of autophagy inhibitor on Uttroside B-induced cleavage of PARP [1]: enhanced
concentration at which blocking of autophagosome degradation peaked (LC3 in HepG2 cells): 10 nM

C[C@H]1CC[C@@]2(OC1)O[C@H]1C[C@H]3[C@@H]4CC[C@@H]5C[C@@H](O)C[C@@H](O[C@@H]6OC[C@@H](O)[C@H](O)[C@H]6O[C@@H]6O[C@@H](C)[C@H](O)[C@@H](O)[C@H]6O)[C@]5(C)[C@H]4CC[C@]3(C)[C@H]1[C@@H]2C [RCE-4, (1β,3β,5β,25S)-spirostan-1,3-diol1-[α-L-rhamnopyranosyl-(1→2)-β-Dxylopyranoside]]
growth inhibition and apoptosis (human cancer cells): induce growth inhibition and apoptosis in human cancer cells

C[C@@H]1CC[C@@]2(OC1)O[C@H]1C[C@H]3[C@@H]4CC[C@H]5C[C@@H](O)CC[C@]5(C)[C@H]4CC[C@]3(C)[C@H]1[C@@H]2C [tigogenin]
effect on cell cycle [3]: no effect on cell cycle
